# ChEMBL document CHEMBL1152560, “Substituted 2-arylbenzothiazoles as kinase inhibitors: hit-to-lead optimization” (Bioorg Med Chem, 2009)
# Columns and labels:
# [1] = target: Casein kinase I isoform gamma-1 (Homo sapiens) (UniProt Q9HCP0); test: Residual activity of CK1gamma1 at 10 uM by microplate scintillation counting
# [2] = target: Ribosomal protein S6 kinase alpha-4 (Homo sapiens) (UniProt O75676); test: Residual activity of RPS6KA4 at 0.1 uM by microplate scintillation counting
# [3] = target: T1, TGF-beta receptor type-1 (Homo sapiens) (UniProt P36897); test: Residual activity of TGFB-R1 at 0.1 uM by microplate scintillation counting
# T1 sequence (whole entry): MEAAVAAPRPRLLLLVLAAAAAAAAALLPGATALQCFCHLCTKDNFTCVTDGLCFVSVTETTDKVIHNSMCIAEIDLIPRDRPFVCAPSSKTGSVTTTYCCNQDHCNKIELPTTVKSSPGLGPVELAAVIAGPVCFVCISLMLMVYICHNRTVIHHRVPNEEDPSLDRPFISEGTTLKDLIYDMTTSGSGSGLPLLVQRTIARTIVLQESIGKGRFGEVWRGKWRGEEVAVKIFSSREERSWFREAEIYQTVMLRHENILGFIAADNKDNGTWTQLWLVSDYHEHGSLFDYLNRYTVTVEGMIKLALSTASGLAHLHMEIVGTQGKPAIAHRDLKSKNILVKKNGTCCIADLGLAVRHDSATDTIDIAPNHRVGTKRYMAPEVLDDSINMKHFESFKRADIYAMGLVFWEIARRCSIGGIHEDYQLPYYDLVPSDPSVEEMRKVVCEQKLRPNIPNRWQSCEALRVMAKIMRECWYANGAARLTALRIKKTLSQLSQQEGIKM
# [4] = target: Serine/threonine-protein kinase PAK 5 (Homo sapiens) (UniProt Q9P286); test: Residual activity of PAK7 at 1 uM by microplate scintillation counting
# [5] = target: MAP kinase-activated protein kinase 3 (Homo sapiens) (UniProt Q16644); test: Residual activity of MAPKAPK3 at 0.1 uM by microplate scintillation counting
# [6] = target: Serine/threonine-protein kinase PAK 3 (Homo sapiens) (UniProt O75914); test: Residual activity of PAK3 at 10 uM by microplate scintillation counting
# [7] = target: T2, Myotonin-protein kinase (Homo sapiens) (UniProt Q09013); test: Residual activity of DMPK at 10 uM by microplate scintillation counting
# T2 sequence (whole entry): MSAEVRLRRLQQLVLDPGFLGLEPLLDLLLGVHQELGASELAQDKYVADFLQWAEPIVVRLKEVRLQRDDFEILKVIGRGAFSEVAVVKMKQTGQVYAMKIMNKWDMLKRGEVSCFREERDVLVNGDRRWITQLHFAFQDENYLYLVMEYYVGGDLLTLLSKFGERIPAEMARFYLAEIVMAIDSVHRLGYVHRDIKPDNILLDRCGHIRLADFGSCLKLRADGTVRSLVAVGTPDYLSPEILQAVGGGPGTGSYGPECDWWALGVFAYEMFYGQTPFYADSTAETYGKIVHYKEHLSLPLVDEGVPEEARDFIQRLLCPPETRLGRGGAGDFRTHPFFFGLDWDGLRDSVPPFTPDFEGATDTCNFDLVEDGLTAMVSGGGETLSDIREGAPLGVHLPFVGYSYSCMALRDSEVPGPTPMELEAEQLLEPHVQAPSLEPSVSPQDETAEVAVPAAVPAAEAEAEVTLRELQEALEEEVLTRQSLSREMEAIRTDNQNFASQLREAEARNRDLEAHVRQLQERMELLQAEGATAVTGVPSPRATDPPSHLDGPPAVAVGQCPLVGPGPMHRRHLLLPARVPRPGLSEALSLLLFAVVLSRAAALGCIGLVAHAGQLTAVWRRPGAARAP
# [8] = target: CDK1/Cyclin A (Homo sapiens) (UniProt P06493+P20248); test: Residual activity of CDK1/Cyclin A at 0.1 uM by microplate scintillation counting; type: protein-complex assay
# [9] = target: T3, Serine/threonine-protein kinase Nek2 (Homo sapiens) (UniProt P51955); test: Residual activity of NEK2 at 10 uM by microplate scintillation counting
# T3 sequence (whole entry): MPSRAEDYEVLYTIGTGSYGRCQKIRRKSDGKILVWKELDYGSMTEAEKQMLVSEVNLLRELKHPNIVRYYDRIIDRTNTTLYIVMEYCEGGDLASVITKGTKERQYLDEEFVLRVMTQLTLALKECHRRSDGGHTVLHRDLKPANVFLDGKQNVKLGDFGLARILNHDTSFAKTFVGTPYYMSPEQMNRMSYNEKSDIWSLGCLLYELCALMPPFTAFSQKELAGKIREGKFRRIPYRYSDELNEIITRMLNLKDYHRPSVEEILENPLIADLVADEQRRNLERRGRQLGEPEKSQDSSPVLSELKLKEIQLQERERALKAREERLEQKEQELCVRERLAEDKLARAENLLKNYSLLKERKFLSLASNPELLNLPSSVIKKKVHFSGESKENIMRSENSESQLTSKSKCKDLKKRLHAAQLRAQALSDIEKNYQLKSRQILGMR
# [10] = target: Homeodomain-interacting protein kinase 1 (Homo sapiens) (UniProt Q86Z02); test: Residual activity of HIPK1 at 10 uM by microplate scintillation counting
# [11] = target: T4, Dual specificity protein kinase TTK (Homo sapiens) (UniProt P33981); test: Residual activity of TTK at 0.1 uM by microplate scintillation counting
# T4 sequence (whole entry): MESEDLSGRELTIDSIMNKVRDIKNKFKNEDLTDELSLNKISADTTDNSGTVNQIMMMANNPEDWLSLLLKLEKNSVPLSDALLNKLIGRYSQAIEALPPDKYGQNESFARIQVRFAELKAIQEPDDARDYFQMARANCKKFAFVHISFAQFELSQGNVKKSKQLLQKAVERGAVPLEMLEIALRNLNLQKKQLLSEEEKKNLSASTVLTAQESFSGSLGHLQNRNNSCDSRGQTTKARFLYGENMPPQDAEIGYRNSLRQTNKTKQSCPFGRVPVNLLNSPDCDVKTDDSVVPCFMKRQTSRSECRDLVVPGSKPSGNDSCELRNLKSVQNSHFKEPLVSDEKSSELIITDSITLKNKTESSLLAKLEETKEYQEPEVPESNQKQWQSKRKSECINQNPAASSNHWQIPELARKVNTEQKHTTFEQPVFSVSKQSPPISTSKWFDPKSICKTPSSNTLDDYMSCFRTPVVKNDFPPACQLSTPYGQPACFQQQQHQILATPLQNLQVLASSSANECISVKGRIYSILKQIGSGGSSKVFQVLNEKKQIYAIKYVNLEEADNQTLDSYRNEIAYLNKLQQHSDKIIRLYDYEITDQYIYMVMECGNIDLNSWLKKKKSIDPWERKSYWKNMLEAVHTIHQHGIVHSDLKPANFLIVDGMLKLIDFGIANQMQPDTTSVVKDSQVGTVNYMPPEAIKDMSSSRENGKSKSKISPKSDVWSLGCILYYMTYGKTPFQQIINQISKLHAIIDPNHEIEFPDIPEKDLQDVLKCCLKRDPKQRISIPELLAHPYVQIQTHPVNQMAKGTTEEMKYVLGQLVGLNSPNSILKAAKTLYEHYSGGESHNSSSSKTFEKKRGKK
# Serine/threonine-protein kinase PAK 5 (Homo sapiens), sequence (Q9P286 whole entry, looked up): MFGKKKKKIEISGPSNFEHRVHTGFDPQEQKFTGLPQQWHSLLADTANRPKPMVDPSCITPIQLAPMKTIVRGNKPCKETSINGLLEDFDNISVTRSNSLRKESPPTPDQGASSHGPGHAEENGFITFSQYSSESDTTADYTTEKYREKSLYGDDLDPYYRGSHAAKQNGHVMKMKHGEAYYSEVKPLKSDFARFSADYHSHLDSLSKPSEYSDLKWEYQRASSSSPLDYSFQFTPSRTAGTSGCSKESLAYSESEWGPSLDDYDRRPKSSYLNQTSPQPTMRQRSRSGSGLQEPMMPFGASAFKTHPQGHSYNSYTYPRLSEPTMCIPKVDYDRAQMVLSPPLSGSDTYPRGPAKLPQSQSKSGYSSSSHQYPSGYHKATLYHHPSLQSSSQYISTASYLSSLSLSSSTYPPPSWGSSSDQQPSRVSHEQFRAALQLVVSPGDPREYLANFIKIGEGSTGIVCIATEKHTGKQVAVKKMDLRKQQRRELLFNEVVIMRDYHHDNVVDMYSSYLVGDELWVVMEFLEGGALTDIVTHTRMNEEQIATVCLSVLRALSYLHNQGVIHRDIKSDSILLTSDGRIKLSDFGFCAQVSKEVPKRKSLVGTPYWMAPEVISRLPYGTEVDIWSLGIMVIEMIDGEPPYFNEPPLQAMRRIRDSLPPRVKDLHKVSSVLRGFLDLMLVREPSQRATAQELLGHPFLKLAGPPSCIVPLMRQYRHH
# Ribosomal protein S6 kinase alpha-4 (Homo sapiens), sequence (O75676 whole entry, looked up): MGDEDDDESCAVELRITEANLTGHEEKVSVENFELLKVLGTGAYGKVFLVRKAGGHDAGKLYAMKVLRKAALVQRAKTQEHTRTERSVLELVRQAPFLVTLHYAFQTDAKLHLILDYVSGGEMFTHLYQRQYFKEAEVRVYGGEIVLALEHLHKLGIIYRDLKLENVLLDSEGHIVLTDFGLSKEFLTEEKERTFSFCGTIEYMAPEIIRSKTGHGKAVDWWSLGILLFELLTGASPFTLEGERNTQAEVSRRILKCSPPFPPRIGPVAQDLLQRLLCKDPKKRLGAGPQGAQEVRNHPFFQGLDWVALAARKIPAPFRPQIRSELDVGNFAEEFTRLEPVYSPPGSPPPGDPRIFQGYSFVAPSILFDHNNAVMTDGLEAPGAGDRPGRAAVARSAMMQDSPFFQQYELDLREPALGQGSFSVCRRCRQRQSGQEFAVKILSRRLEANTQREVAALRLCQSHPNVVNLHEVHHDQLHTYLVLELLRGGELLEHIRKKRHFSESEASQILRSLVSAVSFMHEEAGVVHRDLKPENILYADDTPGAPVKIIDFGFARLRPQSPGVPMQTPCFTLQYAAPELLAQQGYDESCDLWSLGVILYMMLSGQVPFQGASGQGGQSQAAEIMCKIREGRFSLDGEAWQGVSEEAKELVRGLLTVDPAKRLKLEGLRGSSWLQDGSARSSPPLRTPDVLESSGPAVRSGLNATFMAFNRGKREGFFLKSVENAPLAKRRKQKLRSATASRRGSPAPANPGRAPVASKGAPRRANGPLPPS
# Serine/threonine-protein kinase PAK 3 (Homo sapiens), sequence (O75914 whole entry, looked up): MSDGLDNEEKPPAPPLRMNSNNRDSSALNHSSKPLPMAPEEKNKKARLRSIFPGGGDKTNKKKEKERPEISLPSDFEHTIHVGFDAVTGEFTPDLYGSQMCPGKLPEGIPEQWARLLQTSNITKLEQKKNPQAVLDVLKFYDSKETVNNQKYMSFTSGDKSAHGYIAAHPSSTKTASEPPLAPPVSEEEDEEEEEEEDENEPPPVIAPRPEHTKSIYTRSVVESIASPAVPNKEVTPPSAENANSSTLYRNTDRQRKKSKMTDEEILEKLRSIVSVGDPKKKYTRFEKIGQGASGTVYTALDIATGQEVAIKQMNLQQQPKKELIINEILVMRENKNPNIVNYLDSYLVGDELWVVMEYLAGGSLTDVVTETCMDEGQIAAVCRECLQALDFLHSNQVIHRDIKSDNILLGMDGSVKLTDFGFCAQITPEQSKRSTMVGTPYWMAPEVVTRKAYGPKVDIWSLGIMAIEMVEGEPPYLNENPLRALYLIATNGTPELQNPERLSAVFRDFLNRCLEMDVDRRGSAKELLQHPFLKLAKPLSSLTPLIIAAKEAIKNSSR
# Homeodomain-interacting protein kinase 1 (Homo sapiens), sequence (Q86Z02 whole entry, looked up): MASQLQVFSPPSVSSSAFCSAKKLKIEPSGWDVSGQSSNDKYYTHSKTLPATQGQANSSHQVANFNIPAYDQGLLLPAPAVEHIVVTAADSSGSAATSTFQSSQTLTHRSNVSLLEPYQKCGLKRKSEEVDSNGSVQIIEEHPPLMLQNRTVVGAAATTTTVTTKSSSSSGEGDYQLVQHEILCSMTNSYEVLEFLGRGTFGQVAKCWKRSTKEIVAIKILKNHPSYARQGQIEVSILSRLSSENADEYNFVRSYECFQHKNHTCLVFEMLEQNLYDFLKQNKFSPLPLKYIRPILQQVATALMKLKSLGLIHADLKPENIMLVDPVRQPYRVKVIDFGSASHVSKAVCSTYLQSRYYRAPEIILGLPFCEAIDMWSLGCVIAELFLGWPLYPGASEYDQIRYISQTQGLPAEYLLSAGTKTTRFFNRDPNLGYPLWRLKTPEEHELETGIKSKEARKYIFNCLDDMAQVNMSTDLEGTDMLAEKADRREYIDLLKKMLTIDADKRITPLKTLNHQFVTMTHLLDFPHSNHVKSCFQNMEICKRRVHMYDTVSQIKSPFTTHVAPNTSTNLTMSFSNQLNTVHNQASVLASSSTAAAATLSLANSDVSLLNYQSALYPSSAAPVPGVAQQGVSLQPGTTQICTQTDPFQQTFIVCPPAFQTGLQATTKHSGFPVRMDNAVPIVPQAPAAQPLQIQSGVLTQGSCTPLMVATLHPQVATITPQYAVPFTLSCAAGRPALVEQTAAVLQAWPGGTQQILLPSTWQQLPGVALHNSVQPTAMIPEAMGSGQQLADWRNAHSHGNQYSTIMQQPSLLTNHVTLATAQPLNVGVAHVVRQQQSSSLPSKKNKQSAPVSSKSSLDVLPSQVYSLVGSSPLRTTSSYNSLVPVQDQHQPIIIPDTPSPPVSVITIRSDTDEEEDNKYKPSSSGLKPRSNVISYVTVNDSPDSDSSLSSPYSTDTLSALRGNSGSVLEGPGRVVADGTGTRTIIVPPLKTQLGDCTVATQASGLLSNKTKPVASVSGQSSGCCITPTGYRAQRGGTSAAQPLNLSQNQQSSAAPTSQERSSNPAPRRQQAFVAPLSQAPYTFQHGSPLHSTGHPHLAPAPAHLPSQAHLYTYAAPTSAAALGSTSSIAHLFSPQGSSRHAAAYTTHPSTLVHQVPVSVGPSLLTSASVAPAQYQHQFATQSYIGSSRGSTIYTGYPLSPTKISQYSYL
# Casein kinase I isoform gamma-1 (Homo sapiens), sequence (Q9HCP0 whole entry, looked up, canonical isoform): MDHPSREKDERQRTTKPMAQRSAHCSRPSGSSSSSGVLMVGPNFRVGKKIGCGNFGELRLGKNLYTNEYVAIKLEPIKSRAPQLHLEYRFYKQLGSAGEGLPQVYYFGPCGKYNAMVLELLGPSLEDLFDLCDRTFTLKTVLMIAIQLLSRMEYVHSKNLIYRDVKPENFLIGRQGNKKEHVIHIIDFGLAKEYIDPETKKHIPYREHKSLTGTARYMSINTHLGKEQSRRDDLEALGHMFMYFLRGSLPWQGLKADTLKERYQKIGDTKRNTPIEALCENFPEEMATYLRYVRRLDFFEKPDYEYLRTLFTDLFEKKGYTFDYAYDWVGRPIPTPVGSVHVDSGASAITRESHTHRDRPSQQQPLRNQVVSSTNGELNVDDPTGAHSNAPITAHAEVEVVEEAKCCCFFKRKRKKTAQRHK
# MAP kinase-activated protein kinase 3 (Homo sapiens), sequence (Q16644 whole entry, looked up): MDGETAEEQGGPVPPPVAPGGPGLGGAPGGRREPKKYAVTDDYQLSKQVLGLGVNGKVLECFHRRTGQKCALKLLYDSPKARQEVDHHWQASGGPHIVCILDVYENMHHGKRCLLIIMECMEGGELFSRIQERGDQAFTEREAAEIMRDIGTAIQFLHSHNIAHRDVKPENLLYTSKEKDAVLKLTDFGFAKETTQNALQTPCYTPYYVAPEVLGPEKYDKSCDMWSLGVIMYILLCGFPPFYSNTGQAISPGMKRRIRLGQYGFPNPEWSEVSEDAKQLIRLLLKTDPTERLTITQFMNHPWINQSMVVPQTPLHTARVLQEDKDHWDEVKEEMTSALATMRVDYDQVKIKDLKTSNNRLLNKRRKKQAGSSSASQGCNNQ
# CDK1/Cyclin A (Homo sapiens), sequence (P06493 whole entry, looked up): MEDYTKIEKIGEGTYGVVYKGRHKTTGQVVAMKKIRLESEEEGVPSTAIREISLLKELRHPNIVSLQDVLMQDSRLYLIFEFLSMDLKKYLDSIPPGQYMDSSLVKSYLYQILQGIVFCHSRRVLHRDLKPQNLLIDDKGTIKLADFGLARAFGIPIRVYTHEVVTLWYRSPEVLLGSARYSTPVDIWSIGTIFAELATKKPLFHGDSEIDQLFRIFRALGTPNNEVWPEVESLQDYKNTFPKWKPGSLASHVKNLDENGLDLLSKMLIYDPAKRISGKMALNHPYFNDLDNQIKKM
# CDK1/Cyclin A (Homo sapiens), sequence (P20248 whole entry, looked up): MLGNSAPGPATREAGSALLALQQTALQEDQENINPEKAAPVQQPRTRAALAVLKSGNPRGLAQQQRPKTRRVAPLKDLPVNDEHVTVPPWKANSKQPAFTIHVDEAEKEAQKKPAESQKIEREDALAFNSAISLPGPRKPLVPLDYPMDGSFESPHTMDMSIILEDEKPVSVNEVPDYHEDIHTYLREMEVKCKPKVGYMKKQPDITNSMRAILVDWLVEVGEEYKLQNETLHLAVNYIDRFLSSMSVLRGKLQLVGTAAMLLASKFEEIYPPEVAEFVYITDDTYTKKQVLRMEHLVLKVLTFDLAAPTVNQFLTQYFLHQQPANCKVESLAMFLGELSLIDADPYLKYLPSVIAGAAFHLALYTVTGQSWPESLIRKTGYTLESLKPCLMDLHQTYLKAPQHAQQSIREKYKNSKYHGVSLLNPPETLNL
SMILES,residual activity [1],residual activity [2],residual activity [3],residual activity [4],residual activity [5],residual activity [6],residual activity [7],residual activity [8],residual activity [9],residual activity [10],residual activity [11]
COc1cc2c(Oc3ccc(-c4nc5ccccc5s4)cc3F)ncnc2cc1OCCCN1CCN(C)CC1,229%,93%,96%,83%,94%,39%,166%,99%,38%,142%,82%
COc1cc2c(Oc3ccc(-c4nc5ccccc5s4)cc3)ncnc2cc1OCCCN1CCCC1,200%,88%,90%,83%,93%,56%,118%,109%,34%,103%,99%
COc1cc2c(Oc3ccc(-c4nc5ccccc5s4)cc3)ncnc2cc1OCCCN1CCN(C)CC1,256%,91%,102%,77%,91%,43%,88%,94%,54%,132%,89%
